Experimental data published in patent publication US5962516A, “Immunosuppressive compounds and methods” (priority 1999, dated 1999).
Structures can show the parent of a compound that is named as a salt. Where two headings read alike, the source gives them in different places.

Key:
[1] = test system: IL-1β action on murine thymocytes; assay: Inhibition of IL-1 action (IL-1 assay): suppression of IL-1β + PHA stimulated murine thymocyte proliferation; type: cell-based, mouse (C3H/HeN)
Experimental: The ability of the above compounds to suppress the cell-proliferative effect of IL-1β in vitro (O'Gara, 1990) was examined as described in Example 11. Mouse thymocytes in culture were stimulated with IL-1β in the presence of phytohemagglutinin (PHA) and increasing concentrations of triptolide (control) and triptolide derivatives. The cells were cultured for 72 hours, and during the last 18 hours, incubated with tritiated thymidine. DNA synthesis was assessed by measuring incorporation of radiolabeled thymidine. The results expressed in terms of IC50 (concentration effective to cause 50% suppression of proliferation) are shown in Table 1.
C3H/HeN mouse thymocytes were prepared and the action of IL-1 together with PHA, which stimulate proliferation of thymocyte, was measured using standard techniques (O'Gara, 1990; Mishell, 1980). Three- to six-week old C3H/HeN male mice (Simonson Laboratory, Gilroy, Calif.) were sacrificed by CO2 inhalation. Thymi were removed, separated from adherent non-thymic tissue, homogenized in Hank's balanced salt solution (HBSS, Gibco) using a glass homogenizer, and centrifuged at 200×g for 10 minutes at 15° C. Following an additional wash in HBSS, the thymocytes were resuspended in RPMI 1640 medium containing 50 uM 2-mercaptoethanol, 2 mM glutamine, 1 mM sodium pyruvate, non-essential amino acids 100 U/ml penicillin, 100 μg/ml streptomycin, and 10% heat-inactivated fetal bovine serum.
Cells were cultured in round-bottom 96 well microtiter tissue culture plates, 6×10^5 cells per well, in a volume of 100 μl. Recombinant human IL-1β (R & D Systems #201-LB) together with Phytohemagglutinin P (PHA, Pharmacia) were added to the cells in volume of 25 μl per well to achieve a final concentration of 0.08 ng/ml and 10 μg/ml, respectively. Samples were dissolved in DMSO (10 mg/ml), then diluted in culture medium. Twenty five microliters of the test sample was added to each well to achieve the final compound concentrations for each experiment. Cells with PHA together with IL-1 served as controls. The total volume for each well was 150 μl.
Plates were incubated at 37° C. in a 5% CO2 incubator for 72 hours. Fifty microliters of culture medium containing 0.5 μCi (^3 H)-thymidine (Amersham, 49 Ci/mmol) was added to each well prior to the last 18 hours of incubation. Cells were then harvested and counted. The results were reported as counts per minute (cpm) per 6×10^5 cells.
The following formula was used to calculate the percent of suppression of IL-1 activity, and IC50 (concentration of sample yielding 50% suppression of proliferation) was used to indicate the suppressive activity of the sample.
% suppression of IL-1 activity=(1-sample cpm/(IL-1+PHA control

[2] = test system: mixed lymphocyte reaction (spleen cells from female C57BL/6 mice, stimulated with Balb/C spleen cells); assay: Mixed lymphocyte reaction (MLR) assay; type: cell-based, mouse; conditions: 50% suppression of proliferation; for IC50: read-out: MLR Assay IC50
Experimental: Inhibition of cell proliferation by the subject compounds was assayed in the mixed lymphocyte reaction (MLR) (Bradley, 1980; Mishell, 1980). Spleen cells from female C57BL/6 mice, the "responder" cells, were prepared and co-cultured alone or in the presence of varying concentrations of the test compounds, with irradiated spleen cells prepared from female Balb/C mice, the "stimulator" cells. Prior irradiation of the stimulator cells rendered them unable to proliferate. A sample of the responder cells was also irradiated for use as a control. The non-irradiated responder cells proliferate in the presence of the allogenic stimulator cells. After a 78-hour incubation, tritiated thymidine was added to the mixed cell cultures, and incorporation of the labeled nucleotide into DNA was measured as an index of cell proliferation.
In this study, the responder cells (R) were spleen cells from female C57BL16 mice, and the stimulator cells (S) were spleen cells from female Balb/C mice 6 to 8 weeks of age (Jackson, Bar Harbor, Me.). The spleens were aseptically removed from the mice and placed into 10 ml of cold HBSS in a sterile petri dish. The spleen was cut in half and gently pressed between the frosted ends of 2 sterile microslides. The cell suspension was then filtered through sterile nylon mesh (Nytex, Tetco #HD-3-85) into a 15 ml conical polypropylene centrifuge tube and centrifuged at 200×g for 10 minutes in a Beckman GPR tabletop centrifuge (GH-3.7 Rotor). Following an additional wash in HBSS, the spleen cells were resuspended in RPMI 1640 medium (Gibco) containing 50 uM 2-mercaptoethanol, 2 mM glutamine, 100 U/ml penicillin, 100 μg/ml streptomycin and 10% heat-inactivated fetal bovine serum.
The stimulator cells (S) and part of the responder cells (R) were diluted at 10×10^6 cells/ml and irradiated at 20 cGy with a Cesium Irradiator (Department of Radiation Oncology, Stanford University, California) to inhibit proliferation. The irradiated cells were washed once to remove any toxic free radicals and their products resulting from irradiation. The responder cells (R), irradiated stimulator cells (Sx) and irradiated responder cell (Rx) were all diluted to 4×10^6 cells/ml.
In the assay, 4×10^5 cells of R were cocultured with 4×10^5 cells of Sx in 200 μl of medium in round bottom 96 well tissue culture plates. Fifty micro-liters of test samples at various concentrations were added to the cells. The wells receiving no test samples would get the maximum proliferation. Several controls were used in the assay. The irradiated responder cells (Rx) were also added to the responder cells with and without the test samples. Rx or Sx alone were checked to make sure no proliferation occurred after irradiation. The spontaneous proliferation of R was also measured.
The culture plates were incubated at 37° C. in a 5% CO2 incubator for four days. The cells were labelled with 1 μCi of (^3 H)-thymidine (Amersham, 49 Ci/mmol) in 20 μl of medium for the last 18 hours. Cells were then harvested and counted. The results were reported as counts per minute (cpm) per well. Percent of suppression and IC50 (concentration of sample producing 50% suppression of proliferation) were used to indicate the suppressive activity of the sample. Sample cpm was calculated as (R+Sx+sample)cpm-(R+Rx+sample)cpm; control cpm was calculated as (R+Sx)cpm-(R+Rx)cpm. Percent suppression of MLR activity was calculated as (1-sample cpm/control cpm)×100. IC50 was determined from percent suppression to indicate the suppressive activity of the sample.

[3] = 50% suppression of proliferation; 72 h culture
[4] = read-out: IL-1 Assay IC50; 50% suppression of proliferation; 72 h culture

Row | SMILES | IL-1 Assay IC50 [1, 3] [mg/L] | IC50 [1, 4] [µM] | MLR Assay IC50 [2] [mg/L] | IC50 [2] [µM] | also measured
1 | CC(C)C12OC1C1OC13C1(C)CCC4=C(COC4=O)C1CC1OC13C2OC(=O)CCC(=O)O (stereo not drawn) [YM-273, Triptolide Succinate Tris Salt] | 0.462 | 0.8 | 0.18 | 0.31 | 
2 | CC(C)[C@]12O[C@H]1[C@@H]1O[C@]13[C@]1(O[C@H]1C[C@H]1C4=C(CC[C@@]13C)C(=O)OC4)[C@@H]2O [Triptolide, triptolide, reference compound] |  |  |  |  | inhibition of IL-1β action in words [1]: potent inhibitor of IL-1β action; IC50 ([1]; 50% suppression of proliferation; 72 h culture; read-out: IL-1 Assay IC50): ~0.005 µM; IC50 ([2]; Mus musculus, Lymphocyte): 0.0009 mg/L
3 | CC(C)C12OC1C1OC13C1(C)CCC4=C(COC4=O)C1CC1OC13C2OC(=O)CCC(=O)O (stereo not drawn) [YM-274, Triptolide Succinate Sodium Salt] |  |  |  |  | IL-1 Assay IC50 ([1]; 50% suppression of proliferation; 72 h culture; Succinate Sodium Salt): 0.181 mg/L; IC50 ([1]; read-out: IL-1 Assay IC50; 50% suppression of proliferation; 72 h culture; Succinate Sodium Salt): 0.376 µM; MLR Assay IC50 ([2]; Succinate Sodium Salt): 0.09 mg/L; IC50 ([2]; Succinate Sodium Salt): 0.187 µM
4 | CC(C)C12OC1C1OC13C1(C)CCC4=C(COC4=O)C1CC1OC13C2OC(=O)CCC(=O)O (stereo not drawn) [YM-262, Triptolide Succinate] | 0.181 | 0.393 | 0.086 | 0.187 | 
